Test results: PMC7979765, “trans-Translation inhibitors bind to a novel site on the ribosome and clear Neisseria gonorrhoeae in vivo” (Nature Communications, 2021)
In brackets after ≈: the same amount, converted by molar mass. Several values for one entry are separate records, joined by “and”; a condition that tells them apart may be missing. Equal entries are not always repeated. Where two headings read alike, the source gives them in different places.

Key:
[1] = Pharmacokinetic analyses in mice (PO suspension, IV, SC); type: in vivo, mouse
Experimental: Female CD-1 mice as above were fasted for 2 h prior, and 4 h after dosing. […] […], 3 mice from each group were euthanized by CO2 inhalation, blood was collected by cardiac puncture into K2EDTA collection tubes, and protein was precipitated and analysed by LC/MS-MS for plasma concentrations of MBX-4132. Data were analysed using WinNonLin.
[…] At 0.083, 0.5, 1, 4, 8 and 24 h post dose, blood was collected from 3 mice/group by tail vein or facial bleed into K2EDTA collection tubes, and protein was precipitated and analysed by LC/MS-MS for plasma concentrations of MBX-4132. Sampling was performed serially, with each mouse contributing sample at all time points. Data were analysed using WinNonLin.

CYP2C8 = molecular target: T1, CYP2C8 (Homo sapiens, UniProt P10632); experiment: Cyp inhibition assay 4879; type: in vitro ADME; settings: catalog reference 4879, read-out: pIC50 (µM) reported (converted)
T1 construct: Eurofins Discovery Services (contract assay) 4879
T1 sequence (P10632 whole entry): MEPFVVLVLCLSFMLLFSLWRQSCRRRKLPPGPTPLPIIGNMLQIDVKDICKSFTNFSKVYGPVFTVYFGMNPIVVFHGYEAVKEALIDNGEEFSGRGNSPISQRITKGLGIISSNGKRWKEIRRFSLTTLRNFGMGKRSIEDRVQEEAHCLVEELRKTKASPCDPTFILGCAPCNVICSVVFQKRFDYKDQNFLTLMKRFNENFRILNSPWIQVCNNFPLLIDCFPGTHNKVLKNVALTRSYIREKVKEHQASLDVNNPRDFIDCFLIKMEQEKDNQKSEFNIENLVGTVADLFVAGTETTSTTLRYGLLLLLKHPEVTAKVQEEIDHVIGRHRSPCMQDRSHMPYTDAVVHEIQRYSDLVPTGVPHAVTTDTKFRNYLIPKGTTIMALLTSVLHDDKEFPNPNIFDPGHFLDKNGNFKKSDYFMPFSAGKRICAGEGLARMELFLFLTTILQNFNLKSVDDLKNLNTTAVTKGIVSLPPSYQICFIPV
Experimental: (§1) Several in vitro selectivity assays were performed at Eurofins Discovery Services using established methods and controls that behaved as expected (Supplementary Tables 5 and 6). […] For receptor panel profiling, MBX-4132 was evaluated at 10 μM and activity of >50% (agonist or antagonist; note that negative % inhibition indicates agonism) was scored as active.

[2] = molecular target: T2, Cholecystokinin CKK1 (CCKA) (Homo sapiens, UniProt P32238); experiment: Receptor Profiling 218030; type: binding
T2 construct: purchased Eurofins Discovery Services (Panlabs safety panel)
T2 sequence (P32238 whole entry): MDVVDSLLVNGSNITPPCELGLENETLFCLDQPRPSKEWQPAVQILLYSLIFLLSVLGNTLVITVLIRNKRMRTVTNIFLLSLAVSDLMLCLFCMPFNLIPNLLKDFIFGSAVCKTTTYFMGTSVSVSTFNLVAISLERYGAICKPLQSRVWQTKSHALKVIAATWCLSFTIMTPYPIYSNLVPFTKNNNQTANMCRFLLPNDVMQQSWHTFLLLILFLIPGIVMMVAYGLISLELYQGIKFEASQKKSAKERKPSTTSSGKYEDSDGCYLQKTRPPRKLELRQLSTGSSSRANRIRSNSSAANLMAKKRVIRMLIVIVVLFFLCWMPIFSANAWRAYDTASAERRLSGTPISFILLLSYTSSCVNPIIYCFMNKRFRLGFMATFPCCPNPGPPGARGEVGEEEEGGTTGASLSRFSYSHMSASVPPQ
Experimental: as §1

Endothelin ETA = molecular target: T3, Endothelin ETA (Homo sapiens, UniProt P25101); experiment: Receptor Profiling 224010; type: binding
T3 construct: purchased Eurofins Discovery Services (Panlabs safety panel)
T3 sequence (P25101 21-427): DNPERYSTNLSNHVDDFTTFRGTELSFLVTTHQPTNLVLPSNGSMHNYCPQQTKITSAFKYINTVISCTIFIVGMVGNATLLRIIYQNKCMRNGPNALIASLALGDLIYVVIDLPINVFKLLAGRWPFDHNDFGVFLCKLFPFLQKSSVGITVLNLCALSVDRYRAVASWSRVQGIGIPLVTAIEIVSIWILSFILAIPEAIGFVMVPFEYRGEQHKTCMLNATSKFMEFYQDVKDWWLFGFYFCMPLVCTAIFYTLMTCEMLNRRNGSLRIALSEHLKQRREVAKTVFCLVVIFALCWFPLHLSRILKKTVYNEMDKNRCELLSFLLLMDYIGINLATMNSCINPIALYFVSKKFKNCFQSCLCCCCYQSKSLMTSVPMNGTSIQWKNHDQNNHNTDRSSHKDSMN
Experimental: as §1

[3] = Serum protein binding, dog; type: in vitro ADME
Experimental: (§2) Serum protein binding was determined using an equilibrium dialysis method as described. The amount of compound in each chamber (buffer and serum) was measured using methods for reverse-phase liquid chromatography/mass spectroscopy methods that were customized for each compound.

CYP2C9 = molecular target: T4, CYP2C9 (Homo sapiens, UniProt P11712); experiment: Cyp inhibition assay 4878; type: in vitro ADME; settings: catalog reference 4878
T4 construct: Eurofins Discovery Services (contract assay) 4878
T4 sequence (P11712 whole entry): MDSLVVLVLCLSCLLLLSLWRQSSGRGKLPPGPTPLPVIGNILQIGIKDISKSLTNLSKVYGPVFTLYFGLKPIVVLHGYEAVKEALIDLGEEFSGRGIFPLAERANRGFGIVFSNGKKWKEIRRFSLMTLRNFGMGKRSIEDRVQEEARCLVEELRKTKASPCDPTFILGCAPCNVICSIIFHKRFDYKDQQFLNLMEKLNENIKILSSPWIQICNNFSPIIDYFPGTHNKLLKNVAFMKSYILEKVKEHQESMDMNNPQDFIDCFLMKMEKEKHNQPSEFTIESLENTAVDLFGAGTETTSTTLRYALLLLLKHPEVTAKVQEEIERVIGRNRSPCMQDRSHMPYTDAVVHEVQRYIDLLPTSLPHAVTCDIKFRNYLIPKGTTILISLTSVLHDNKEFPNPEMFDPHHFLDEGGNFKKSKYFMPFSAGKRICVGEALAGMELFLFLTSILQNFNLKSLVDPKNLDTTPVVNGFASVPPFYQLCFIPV
Experimental: as §1

[4] = Liver microsome stability, rat; type: in vitro ADME
Experimental: To examine potential for first-pass metabolism of analogs in the liver, the stability of analogs in the presence of liver microsome preparations (Eurofins Discovery for human, dog and rat; Xenotech for mouse) was measured using the method of Kuhnz, et al.[50]. for murine studies and Oback for the dog, human and rat studies. The amount of parent compound remaining after incubation with microsomes in the presence of NADPH over a 30 min time range was measured using a reverse-phase liquid chromatography/mass spectroscopy method that was customized for each compound. Half-lives were calculated using linear regression analysis of several time points.

Glucocorticoid = molecular target: T5, Glucocorticoid (Homo sapiens, UniProt P04150); experiment: Receptor Profiling 232030; type: binding
T5 construct: purchased Eurofins Discovery Services (Panlabs safety panel)
Experimental: as §1

[5] = Serum protein binding, human; type: in vitro ADME; settings: read-out: Serum binding (% bound) Human (converted)
Experimental: as §2

Solubility (formulated) = type: physicochemical
CYP2D6 = molecular target: T6, CYP2D6 (Homo sapiens, UniProt P10635); experiment: Cyp inhibition assay 4875; type: in vitro ADME; settings: catalog reference 4875, read-out: pIC50 (µM) reported (converted)
T6 construct: Eurofins Discovery Services (contract assay) 4875
T6 sequence (P10635 whole entry): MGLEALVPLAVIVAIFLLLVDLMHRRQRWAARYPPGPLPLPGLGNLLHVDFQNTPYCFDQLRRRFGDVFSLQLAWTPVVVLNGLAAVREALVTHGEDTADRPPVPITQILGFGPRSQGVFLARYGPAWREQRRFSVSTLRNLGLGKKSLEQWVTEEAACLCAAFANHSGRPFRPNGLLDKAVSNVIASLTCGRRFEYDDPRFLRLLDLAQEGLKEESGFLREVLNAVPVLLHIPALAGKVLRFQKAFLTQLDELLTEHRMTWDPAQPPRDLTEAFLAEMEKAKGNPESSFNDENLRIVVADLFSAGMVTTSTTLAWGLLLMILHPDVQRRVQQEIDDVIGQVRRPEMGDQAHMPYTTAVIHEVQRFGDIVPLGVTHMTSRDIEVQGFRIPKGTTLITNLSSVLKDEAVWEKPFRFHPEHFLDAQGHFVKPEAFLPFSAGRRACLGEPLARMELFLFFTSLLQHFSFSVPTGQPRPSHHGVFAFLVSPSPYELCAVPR
Experimental: as §1

Monoamine Oxidase MAO-A = molecular target: T7, Monoamine Oxidase MAO-A (Homo sapiens, UniProt P21397); experiment: Receptor Profiling 140010; type: biochemical; settings: negative % inhibition indicates agonism
T7 construct: Eurofins Discovery Services (contract assay) 140010
T7 sequence (P21397 whole entry): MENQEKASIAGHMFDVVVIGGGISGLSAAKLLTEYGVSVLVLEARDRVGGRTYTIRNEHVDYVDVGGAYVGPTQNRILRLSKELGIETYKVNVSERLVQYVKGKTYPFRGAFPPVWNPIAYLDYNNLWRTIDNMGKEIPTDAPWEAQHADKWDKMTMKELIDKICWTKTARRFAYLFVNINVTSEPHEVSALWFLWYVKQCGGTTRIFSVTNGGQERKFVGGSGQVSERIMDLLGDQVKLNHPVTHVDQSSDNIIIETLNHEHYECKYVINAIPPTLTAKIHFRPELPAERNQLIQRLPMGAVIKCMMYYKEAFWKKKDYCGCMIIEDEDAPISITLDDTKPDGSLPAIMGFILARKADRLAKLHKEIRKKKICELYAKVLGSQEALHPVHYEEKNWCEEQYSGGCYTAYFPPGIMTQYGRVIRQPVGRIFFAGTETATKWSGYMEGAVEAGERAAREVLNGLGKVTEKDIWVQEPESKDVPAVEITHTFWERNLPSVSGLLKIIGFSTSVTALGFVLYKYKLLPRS
Experimental: as §1

CYP2B6 = molecular target: T8, CYP2B6 (Homo sapiens, UniProt P20813); experiment: Cyp inhibition assay 4877; type: in vitro ADME; settings: catalog reference 4877, read-out: pIC50 (µM) reported (converted)
T8 construct: Eurofins Discovery Services (contract assay) 4877
T8 sequence (P20813 whole entry): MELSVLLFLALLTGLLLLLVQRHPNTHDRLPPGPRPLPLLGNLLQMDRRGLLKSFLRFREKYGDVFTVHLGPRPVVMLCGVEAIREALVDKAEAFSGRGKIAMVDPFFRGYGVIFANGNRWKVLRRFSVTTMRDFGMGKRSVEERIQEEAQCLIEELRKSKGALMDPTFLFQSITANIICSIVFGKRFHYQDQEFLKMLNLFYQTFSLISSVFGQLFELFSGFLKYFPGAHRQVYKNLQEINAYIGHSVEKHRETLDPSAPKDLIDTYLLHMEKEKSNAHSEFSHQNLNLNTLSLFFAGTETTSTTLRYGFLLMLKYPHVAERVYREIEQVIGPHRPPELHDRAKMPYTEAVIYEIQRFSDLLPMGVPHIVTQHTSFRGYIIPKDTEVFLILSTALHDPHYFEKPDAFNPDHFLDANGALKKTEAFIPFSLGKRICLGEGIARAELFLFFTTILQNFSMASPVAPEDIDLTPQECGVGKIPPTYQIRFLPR
Experimental: as §1

Vasopressin V1A = molecular target: T9, Vasopressin V1A (Homo sapiens, UniProt P37288); experiment: Receptor Profiling 287530; type: binding
T9 construct: purchased Eurofins Discovery Services 287530
T9 sequence (P37288 whole entry): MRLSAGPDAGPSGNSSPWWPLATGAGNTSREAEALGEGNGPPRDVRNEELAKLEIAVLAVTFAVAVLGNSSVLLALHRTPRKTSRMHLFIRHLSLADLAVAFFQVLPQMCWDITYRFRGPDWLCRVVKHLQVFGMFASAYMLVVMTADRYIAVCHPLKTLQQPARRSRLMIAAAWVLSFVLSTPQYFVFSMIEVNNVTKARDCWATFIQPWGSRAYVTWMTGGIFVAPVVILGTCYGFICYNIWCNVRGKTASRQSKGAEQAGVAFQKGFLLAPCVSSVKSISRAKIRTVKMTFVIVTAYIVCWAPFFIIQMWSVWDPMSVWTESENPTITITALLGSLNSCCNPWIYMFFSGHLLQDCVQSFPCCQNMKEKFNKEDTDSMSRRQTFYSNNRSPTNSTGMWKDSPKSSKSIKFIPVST
Experimental: as §1

Histamine H2 = molecular target: T10, Histamine H2 (Homo sapiens, UniProt P25021); experiment: Receptor Profiling 239710; type: binding
T10 construct: purchased Eurofins Discovery Services (Panlabs safety panel)
T10 sequence (P25021 whole entry): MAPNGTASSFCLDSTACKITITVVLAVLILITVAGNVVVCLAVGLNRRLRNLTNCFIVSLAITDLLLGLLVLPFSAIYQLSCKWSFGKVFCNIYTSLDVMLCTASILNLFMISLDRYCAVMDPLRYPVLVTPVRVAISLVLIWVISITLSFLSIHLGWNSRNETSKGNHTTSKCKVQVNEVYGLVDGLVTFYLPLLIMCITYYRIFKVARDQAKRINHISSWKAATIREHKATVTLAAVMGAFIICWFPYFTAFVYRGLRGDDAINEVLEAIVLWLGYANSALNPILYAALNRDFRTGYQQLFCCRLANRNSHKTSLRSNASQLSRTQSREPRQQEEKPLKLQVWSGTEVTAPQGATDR
Experimental: as §1

[6] = molecular target: T11, Transporter, Norepinephrine (NET) (Homo sapiens, UniProt P23975); experiment: Receptor Profiling 204410; type: binding
T11 construct: purchased Eurofins Discovery Services 204410
T11 sequence (P23975 whole entry): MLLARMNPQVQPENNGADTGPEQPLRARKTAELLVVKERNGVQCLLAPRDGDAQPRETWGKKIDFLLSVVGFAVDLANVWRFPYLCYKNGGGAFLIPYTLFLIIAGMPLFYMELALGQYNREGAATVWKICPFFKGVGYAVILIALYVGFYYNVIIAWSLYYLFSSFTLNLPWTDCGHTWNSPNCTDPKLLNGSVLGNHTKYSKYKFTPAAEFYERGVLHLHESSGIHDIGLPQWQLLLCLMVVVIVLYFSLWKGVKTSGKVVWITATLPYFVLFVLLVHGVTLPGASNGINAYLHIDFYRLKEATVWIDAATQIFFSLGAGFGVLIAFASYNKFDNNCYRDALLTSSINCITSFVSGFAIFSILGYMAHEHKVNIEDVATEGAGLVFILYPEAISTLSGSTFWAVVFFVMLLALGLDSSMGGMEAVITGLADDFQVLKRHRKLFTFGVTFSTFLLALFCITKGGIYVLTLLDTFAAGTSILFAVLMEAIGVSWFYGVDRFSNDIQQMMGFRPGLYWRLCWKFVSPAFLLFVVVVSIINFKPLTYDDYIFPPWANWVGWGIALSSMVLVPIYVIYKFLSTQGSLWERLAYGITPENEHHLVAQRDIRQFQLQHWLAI
Experimental: as §1

Escherichia coli = experiment: microbe, parasite or virus in culture; type: cell-based
Opiate Mu (OP3, MOP) = molecular target: T12, Opiate Mu (OP3, MOP) (Homo sapiens, UniProt P35372); experiment: Receptor Profiling 260410; type: binding
T12 construct: purchased Eurofins Discovery Services (Panlabs safety panel)
Experimental: as §1

[7] = Escherichia coli KLE700, replicates
[8] = Escherichia coli KLE701 (ΔtolC), replicates
[9] = Escherichia coli, E. coli KLE701 (ΔtolC::tet), source data, individual replicates
[10] = Escherichia coli, Escherichia coli KLE700, replicates, read-out: MIC
[11] = Escherichia coli, strain KLE700, read-out: MIC
[12] = Escherichia coli, strain KLE701, KLE700 ΔtolC::tet

O=C(Nc1nnc(-c2ccc(F)cc2)o1)N1CCc2ccccc2C1 [MBX-4132]
oral bioavailability (in words) ([1]; mice): highly orally bioavailable
exposure in fasted vs fed mice (in words) ([1]; plasma at 1 and 4 h post dosing, formulation A): No significant variation in exposure
IC50 (CYP2C8): > 100 µM
inhibition at 10 µM [2]: 66%
inhibition at 10 µM (Endothelin ETA): -15%
fraction unbound ([3]; Average Value, Eurofins, read-out: Serum binding (% bound) Dog (converted)): 0.048
fraction unbound ([3]; Replicate 1/2, Eurofins, read-out: Serum binding (% bound) Dog (converted)): 0.095 and 0.002
fraction unbound ([3]; Reported value, Eurofins, read-out: Serum binding (% bound) Dog (converted)): 0.048
fraction unbound ([3]; read-out: Serum Binding (% bound) Dog (converted)): 0.048
pIC50 (µM) reported (CYP2C9): No activity
Microsomal stability (t½, min) Rat ([4]; Reported value, Eurofins): >120 min
half-life ([4]; rat, liver microsomes, read-out: Microsomal Stability (t1/2; min) Rat): > 2 h
inhibition at 10 µM (Glucocorticoid): -2%
fraction unbound ([5]; Average Value, Eurofins): 0.009
fraction unbound ([5]; Replicate 1/2, Eurofins): 0.017 and 0.002
fraction unbound ([5]; Reported value, Eurofins): 0.01
Solubility (Solubility (formulated)): 5000 µg/mL (≈ 14800 µM)
IC50 (CYP2D6): > 100 µM
inhibition at 10 µM (Monoamine Oxidase MAO-A): -108%
IC50 (CYP2B6): > 100 µM
inhibition at 10 µM (Vasopressin V1A): -4%
inhibition at 10 µM (Histamine H2): -7%
inhibition at 10 µM [6]: 6%
MIC (Escherichia coli; E. coli KLE701 (ΔtolC::tet), source data, individual replicates): 4.229 µg/mL (≈ 12.5 µM)
MIC (Escherichia coli; [7]): ≥34 µg/mL
MIC (Escherichia coli; [8]): 2.11 µg/ml (4×) and 4.23 µg/ml (2×)
MIC (Escherichia coli; [9]): 2.11 µg/mL (≈ 6.25 µM)
MIC (Escherichia coli; [10]): ≥ 34 µg/mL
MIC (Escherichia coli; [11]): ≥ 34 µg/mL
MIC (Escherichia coli; [12]): 2.8 µg/mL (≈ 8.28 µM)
inhibition at 10 µM (Opiate Mu (OP3, MOP)): 17%

O=C(Nc1nnc(-c2ccc(F)cc2)o1)c1ccc(Cl)cc1 [KKL-35, 4-chloro-N-(5-(4-fluorophenyl)-1,3,4-oxadiazol-2-yl)benzamide]
Solubility (Solubility (formulated)): 1000 µg/mL (≈ 3150 µM)
MIC (Escherichia coli; [7]): ≥32 µg/mL
MIC (Escherichia coli; [8]): 0.50 µg/mL (≈ 1.57 µM)
MIC (Escherichia coli; [9]): 0.496 µg/mL (≈ 1.56 µM)
MIC (Escherichia coli; [10]): ≥ 32 µg/mL
MIC (Escherichia coli; Escherichia coli, Escherichia coli KLE701 (ΔtolC), replicates): 0.5 µg/mL (≈ 1.57 µM)
MIC (Escherichia coli; [11]): ≥ 32 µg/mL
MIC (Escherichia coli; [12]): 0.5 µg/mL (≈ 1.57 µM)
